pIC50: −log10 of the molar value.
Key:
human αvβ3 receptor = human αvβ3 receptor (Homo sapiens, UniProt P05106+P06756); assay: Displacement of the binding Vitronectin/Vitronectin receptor (αvβ3), competition test; settings: human vitronectin coated plates, 3 hours at ambient temperature, read-out: Competition test Vn/VR (αvβ3) binding IC50 en
Protocol: 1—Study of the Products of the Invention on the Displacement of the Binding: Vitronectin/Vitronectin Receptor (αvβ3) […]
MaxiSorp 96-well plates are coated overnight at 4° C., with 100 μl of human Vitronectin (cf Yatohgo et al. Cell., Structure and fraction 13: 281-292 (1988)) at 2 μg/ml, (Dilution in coating buffer).
The next day, the wells are emptied and the ligands (Vitronectin) are then fixed (see fixing buffer) for one hour at ambient temperature under gentle agitation.
The wells are washed six times (see washing buffer), then the following are added to each well and in this order:
40 μl of incubation buffer, 10 μl of the dilution of the product to be tested, (the products are diluted in a 50/50 mixture of DMSO-H2O) 50 μl of human αvβ3 receptor (cf Pytela et al. Methods Enzymol (1987) 144:475) (dilution in incubation buffer, to be adapted according to the receptor batch and according to the ligand).
The ligand, the human αvβ3 receptor and the products to be studied are incubated for 3 hours at ambient temperature under gentle agitation.
The wells are again washed six times, then incubated for 2 hours at ambient temperature under gentle agitation, in the presence of 100 μl of anti-receptor, 4B12-HRP antibody coupled to a peroxidase (the 4B12-HRP antibody is diluted in an incubation buffer. The dilution is to be adapted according to the receptor batch).
This kit contains a bottle A of substrate (3,3′,5,5′-tetramethylbenzidine at 0.4 g/l) and a bottle B (H2O2 at 0.02% in a citrate/citric acid buffer). Extemporaneously, a volume of A is mixed with a volume of B, then the reaction mixture is distributed at a rate of 100 μl/well. The enzymatic reaction develops over […] for Vitronectin/αvβ3, then its development is stopped by the addition of 100 μl of 1M phosphoric acid. The optical density is measured at 450 nm. […]
coating buffer: Carbonate 0.05 M, NaOH pH 9.6 fixing buffer: PBS containing 0.5% BSA (pH 7.4) washing buffer: PBS containing 0.05% Tween 20 (pH 7.4)
Expression of the Results:
The following curve is traced: the percentage of binding of the human vitronectin as a function of the logarithm of the concentration of each product tested.
For each product the IC50 is determined according to the following formula:
BO=Maximum binding in the absence of any product
Bmin=Minimum binding in the presence of the highest concentration of product.

[1] = tested on: bone resorption (skullcaps of new-born mice); assay: Test of mouse calvarium: bone resorption by release of 45Ca from skullcaps of new-born mice, ex-vivo; settings: Mus musculus, inhibition of bone resorption (45Ca release) in half-calvaria, 48 hours contact, read-out: Mouse cavarium % inhibition at 10 μM
Excerpt: 2—Test of Mouse Calvarium
Injection of a tracer dose of ^45Ca (CaCl2) to gestating female mice in order to study bone resorption by measuring the release of ^45Ca from the skullcaps of new-born mice.
Determination of the activity of a molecule on bone resorption, ex-vivo study.
Vehicle: DMSO, H2O/BSA (0.1%)
Dose: Variable ([…] in screening).
Echistatin (ref. H-9010-BACHEM)
^45Ca in the form of an aqueous solution of CaCl2—ref. CES3 AMERSHAM or NEZ-013 NEN.
Vehicle: Physiological serum
Dose: 25 μCi/mouse/0.4 ml
CMRL 1066 with phenol red (ref. 041-01535 M/GIBCO) supplemented by 0.1% BSA and penicillin/streptomycin.
1) Injection of ^45Ca to Gestating Mice (OF1, Strain: Swiss)
a) Preparation of the Labelled Solution:
190 μl of the mother solution of calcium at 2 mci/ml is added to 6 ml of physiological serum.
On the 17th day of gestation the mice receive 400 μl of this solution by intravenous route, that is 25 μCi/mouse.
2) Removal of the Tissue (Skullcap (Calvarium))
Six days after their birth the new-born mice are decapitated, then the head is recovered, and the skin is incised from the nape to the front. The skullcap is removed by cutting it out with scissors, and using a punch two exactly identical half-calvaria (one on the left and one on the right) are cut from the parietal bones. One will serve as the control, the other will be used to test the product to be studied.
Each half calvarium is placed in a well of a 24-well plate, containing 1 ml of medium, on a 100 μm polyethylene and nylex support, in order to avoid all contact with the bottom of the well.
After 24 hours, the polyethylene supports carrying the calvaria are transferred into new 24-well plates containing 1 ml of fresh medium and the products to be tested or their solvents. 200 μl of medium from the first plates is removed from each well and a first count of the radioactivity is carried out (value A).
This change of medium allows all the mechanical stress associated with the removal to be eliminated.
48 hours after putting the tissues in contact with the studied products, 200 μl of medium is removed from each well and counted (value B), so as to determine the quantity of ^45Ca released from the medium during the so-called resorption phase.
The calvarium is then completely demineralized in 1 ml of 5% trichloracetic acid and after digestion, 200 μl is also removed and counted so as to determine the quantity of calcium remaining in the bone (value C). Expression of the results
A % of bone resorption is calculated for each half-calvarium (each well) in the following manner:
% bone resorption=dpm B/dpm (A+B+C)×100
The sum of dpm A+B+C represents the quantity of ^45Ca incorporated in each bone part on the day of removal.
In order to measure the effect of a product, the ratio of the percentage of bone resorption of the treated well and of the corresponding control well is calculated for each point. The value found called the resorption index is comprised between 0 and 1 if the product inhibits bone resorption and is >1 if the product potentializes it. The average of the 6 indices (since there are 6 points/group) of each product is then calculated which gives one index/product. If this index is subtracted from the value 1, the inhibitory power of the product is obtained, which can be expressed as a percentage.
Furthermore a statistical test (Student T-test) is carried out by comparing point/point the individual resorption indices.

pIC50 (human αvβ3 receptor)	SMILES	inhibition at 10 µM [1] [%]
7.30	COc1c(OCCCC(=O)O)cc2c(c1OC)C1=C(CCC1)C(=NNC1=NCCN1)CC2 [EX. 11, 4-(4((4,5-Dihydro-1H-imidazolin-2-yl)hydrazono)-9,10-dimethoxy-1,2,3,4,5,6-hexahydro-8-benz(e)azulenyl)oxy)-butanoic Acid]	7
7.89	O=C(NC(CCOc1ccc2c(c1)CCC(=NNC1=NCCN1)C1=C2CCC1)C(=O)O)OCc1ccccc1 (racemic) [EX. 25, O-[4-[(4,5-Dihydro-1H-imidazol-2-yl)hydrazono)-1,2,3,4,5,6-hexahydro-8-benz(e)azulenyl]-N-[(phenylmethoxy)-carbonyl]-DL-homoserine]	26

Reference: patent US6459001B1 (Aventis Pharma S.A., priority 1997, dated 2002)
